# Laboratory results: ChEMBL document CHEMBL4800729 (2021)
# How the values were obtained:
# [1] = molecular target: T1, 5-hydroxytryptamine receptor 2B (Homo sapiens, UniProt P41595); assay: GPCRScan assay: inhibition of 5-HT2B; set-up: radioligand conc. used [nm] 1.0 – 2.0, parental cells stable HEK
# [2] = molecular target: 5-hydroxytryptamine receptor 7 (Homo sapiens, UniProt P34969); assay: GPCRScan assay: inhibition of 5-HT7A; set-up: radioligand conc. used [nm] 5.0 – 6.0, parental cells Stable HEK
# [3] = molecular target: Calcium/calmodulin-dependent protein kinase type II subunit beta (Homo sapiens) (UniProt Q13554); assay: CaMKIIbeta(h) Millipore kinase panel; settings: Compound concentration 1.0 uM
# [4] = molecular target: Cyclin-dependent kinase 4/cyclin D (Homo sapiens) (UniProt P11802+P24385+P30281+P30279); assay: CDK4/cyclinD Millipore kinase panel; format: protein-complex assay; settings: Compound concentration 1.0 uM
# [5] = molecular target: Cyclin-dependent kinase-like 1 (Homo sapiens) (UniProt Q00532); assay: CDKL1(h) Millipore kinase panel; settings: Compound concentration 1.0 uM
# [6] = molecular target: Cyclin-dependent kinase-like 3 (Homo sapiens) (UniProt Q8IVW4); assay: CDKL3(h) Millipore kinase panel; settings: Compound concentration 1.0 uM
# [7] = molecular target: Transient receptor potential cation channel subfamily M member 7 (Homo sapiens) (UniProt Q96QT4); assay: ChaK1(h) Millipore kinase panel; settings: Compound concentration 1.0 uM
# [8] = molecular target: Serine/threonine-protein kinase DCLK1 (Homo sapiens) (UniProt O15075); assay: DCAMKL1(h) Millipore kinase panel; settings: Compound concentration 1.0 uM
# [9] = molecular target: Epithelial discoidin domain-containing receptor 1 (Homo sapiens) (UniProt Q08345); assay: DDR1(h) Millipore kinase panel; settings: Compound concentration 1.0 uM
# [10] = molecular target: Serine/threonine-protein kinase 17B (Homo sapiens) (UniProt O94768); assay: DRAK2(h) Millipore kinase panel; settings: Compound concentration 1.0 uM
# [11] = molecular target: Ephrin type-A receptor 8 (Homo sapiens) (UniProt P29322); assay: EphA8(h) Millipore kinase panel; settings: Compound concentration 1.0 uM
# [12] = molecular target: Receptor tyrosine-protein kinase erbB-4 (Homo sapiens) (UniProt Q15303); assay: ErbB4(h) Millipore kinase panel; settings: Compound concentration 1.0 uM
# [13] = molecular target: Fibroblast growth factor receptor 3 (Homo sapiens) (UniProt P22607); assay: FGFR3(h) Millipore kinase panel; settings: Compound concentration 1.0 uM
# [14] = molecular target: Vascular endothelial growth factor receptor 1 (Homo sapiens) (UniProt P17948); assay: Flt1(h) Millipore kinase panel; settings: Compound concentration 1.0 uM
# [15] = molecular target: Macrophage colony-stimulating factor 1 receptor (Homo sapiens) (UniProt P07333); assay: Fms(h) Millipore kinase panel; settings: Compound concentration 1.0 uM
# [16] = molecular target: Homeodomain-interacting protein kinase 3 (Homo sapiens) (UniProt Q9H422); assay: HIPK3(h) Millipore kinase panel; settings: Compound concentration 1.0 uM
# [17] = molecular target: Interleukin-1 receptor-associated kinase 4 (Homo sapiens) (UniProt Q9NWZ3); assay: IRAK4(h) Millipore kinase panel; settings: Compound concentration 1.0 uM
# [18] = molecular target: Tyrosine-protein kinase JAK1 (Homo sapiens) (UniProt P23458); assay: JAK1(h) Millipore kinase panel; settings: Compound concentration 1.0 uM
# [19] = molecular target: MAP kinase-interacting serine/threonine-protein kinase 2 (Homo sapiens) (UniProt Q9HBH9); assay: Mnk2(h) Millipore kinase panel; settings: Compound concentration 1.0 uM
# [20] = molecular target: MAPK/MAK/MRK overlapping kinase (Homo sapiens) (UniProt Q9UQ07); assay: MOK(h) Millipore kinase panel; settings: Compound concentration 1.0 uM
# [21] = molecular target: Myosin-IIIb (Homo sapiens) (UniProt Q8WXR4); assay: MYO3B(h) Millipore kinase panel; settings: Compound concentration 1.0 uM
# [22] = molecular target: Serine/threonine-protein kinase PAK 3 (Homo sapiens) (UniProt O75914); assay: PAK3(h) Millipore kinase panel; settings: Compound concentration 1.0 uM
# [23] = molecular target: PAS domain-containing serine/threonine-protein kinase (Homo sapiens) (UniProt Q96RG2); assay: PASK(h) Millipore kinase panel; settings: Compound concentration 1.0 uM
# [24] = molecular target: [Pyruvate dehydrogenase (acetyl-transferring)] kinase isozyme 4, mitochondrial (Homo sapiens) (UniProt Q16654); assay: PDHK4(h) Millipore kinase panel; settings: Compound concentration 1.0 uM
# [25] = molecular target: Serine/threonine-protein kinase pim-2 (Homo sapiens) (UniProt Q9P1W9); assay: Pim-2(h) Millipore kinase panel; settings: Compound concentration 1.0 uM
# [26] = molecular target: RAC-gamma serine/threonine-protein kinase (Homo sapiens) (UniProt Q9Y243); assay: PKBgamma(h) Millipore kinase panel; settings: Compound concentration 1.0 uM
# [27] = molecular target: Protein kinase C zeta type (Homo sapiens) (UniProt Q05513); assay: PKCzeta(h) Millipore kinase panel; settings: Compound concentration 1.0 uM
# [28] = molecular target: MAP kinase-activated protein kinase 5 (Homo sapiens) (UniProt Q8IW41); assay: PRAK(h) Millipore kinase panel; settings: Compound concentration 1.0 uM
# [29] = molecular target: Serine/threonine-protein kinase N1 (Homo sapiens) (UniProt Q16512); assay: PRK1(h) Millipore kinase panel; settings: Compound concentration 1.0 uM
# [30] = molecular target: Ribosomal protein S6 kinase alpha-1 (Homo sapiens) (UniProt Q15418); assay: Rsk1(h) Millipore kinase panel; settings: Compound concentration 1.0 uM
# [31] = molecular target: Mitogen-activated protein kinase 11 (Homo sapiens) (UniProt Q15759); assay: SAPK2b(h) Millipore kinase panel; settings: Compound concentration 1.0 uM
# [32] = molecular target: Serine/threonine-protein kinase 16 (Homo sapiens) (UniProt O75716); assay: STK16(h) Millipore kinase panel; settings: Compound concentration 1.0 uM
# [33] = molecular target: Mitogen-activated protein kinase kinase kinase 7 (Homo sapiens) (UniProt O43318); assay: TAK1(h) Millipore kinase panel; settings: Compound concentration 1.0 uM
# [34] = molecular target: Serine/threonine-protein kinase WNK1 (Homo sapiens) (UniProt Q9H4A3); assay: WNK1(h) Millipore kinase panel; settings: Compound concentration 1.0 uM
# [35] = molecular target: Mitogen-activated protein kinase 1 (Homo sapiens) (UniProt P28482); assay: MAPK2(h) Millipore kinase panel; settings: Compound concentration 1.0 uM
# [36] = molecular target: MAP kinase-activated protein kinase 3 (Homo sapiens) (UniProt Q16644); assay: MAPKAP-K3(h) Millipore kinase panel; settings: Compound concentration 1.0 uM
# [37] = molecular target: CDK3/cyclin E (Homo sapiens) (UniProt P24864+O96020+Q00526); assay: CDK3/cyclinE(h) Millipore kinase panel; format: protein-complex assay; settings: Compound concentration 1.0 uM
# [38] = molecular target: T1, 5-hydroxytryptamine receptor 2B; settings: Compound concentration 10.0 uM
# [39] = molecular target: 5-hydroxytryptamine receptor 6 (Homo sapiens, UniProt P50406); settings: Compound concentration 10.0 uM
# [40] = molecular target: D(3) dopamine receptor (Homo sapiens) (UniProt P35462); settings: Compound concentration 10.0 uM
# [41] = molecular target: Histamine H4 receptor (Homo sapiens) (UniProt Q9H3N8); settings: Compound concentration 10.0 uM
# [42] = molecular target: Sigma intracellular receptor 2 (Homo sapiens) (UniProt Q5BJF2); settings: Compound concentration 10.0 uM
# [43] = molecular target: Delta-type opioid receptor (Homo sapiens) (UniProt P41143); settings: Compound concentration 10.0 uM
# [44] = molecular target: Glucocorticoid receptor (Homo sapiens) (UniProt P04150); settings: Compound concentration 10.0 uM
# [45] = molecular target: GABA-A receptor; anion channel (Rattus norvegicus) (UniProt O09028+P15431+P18506+P18508+P19969+P20236+P23574+P23576+P28471+P28473+P30191+P62813+P63079+P63138+Q91ZM7+Q9ES14); settings: Compound concentration 10.0 uM
# [46] = molecular target: B1 bradykinin receptor (Homo sapiens) (UniProt P46663); settings: Compound concentration 10.0 uM
# [47] = molecular target: Equilibrative nucleoside transporter 1/2/3/4 (Homo sapiens) (UniProt Q99808+Q7RTT9+Q14542+Q9BZD2); settings: Compound concentration 10.0 uM
# T1 sequence (P41595 whole entry): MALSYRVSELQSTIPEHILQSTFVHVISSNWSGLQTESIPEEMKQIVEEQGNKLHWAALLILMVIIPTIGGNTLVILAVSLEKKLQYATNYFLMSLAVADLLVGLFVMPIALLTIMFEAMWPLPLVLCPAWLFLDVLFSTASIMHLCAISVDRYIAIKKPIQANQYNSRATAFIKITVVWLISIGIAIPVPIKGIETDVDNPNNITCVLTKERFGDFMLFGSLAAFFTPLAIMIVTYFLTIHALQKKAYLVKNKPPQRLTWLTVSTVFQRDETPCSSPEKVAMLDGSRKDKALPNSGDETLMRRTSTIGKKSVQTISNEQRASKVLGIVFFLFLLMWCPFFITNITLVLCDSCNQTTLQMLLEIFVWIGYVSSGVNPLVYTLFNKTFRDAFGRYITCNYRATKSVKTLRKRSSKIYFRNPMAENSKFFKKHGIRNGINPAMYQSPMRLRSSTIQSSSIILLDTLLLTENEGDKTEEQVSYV
# 5-hydroxytryptamine receptor 7, sequence (P34969 whole entry): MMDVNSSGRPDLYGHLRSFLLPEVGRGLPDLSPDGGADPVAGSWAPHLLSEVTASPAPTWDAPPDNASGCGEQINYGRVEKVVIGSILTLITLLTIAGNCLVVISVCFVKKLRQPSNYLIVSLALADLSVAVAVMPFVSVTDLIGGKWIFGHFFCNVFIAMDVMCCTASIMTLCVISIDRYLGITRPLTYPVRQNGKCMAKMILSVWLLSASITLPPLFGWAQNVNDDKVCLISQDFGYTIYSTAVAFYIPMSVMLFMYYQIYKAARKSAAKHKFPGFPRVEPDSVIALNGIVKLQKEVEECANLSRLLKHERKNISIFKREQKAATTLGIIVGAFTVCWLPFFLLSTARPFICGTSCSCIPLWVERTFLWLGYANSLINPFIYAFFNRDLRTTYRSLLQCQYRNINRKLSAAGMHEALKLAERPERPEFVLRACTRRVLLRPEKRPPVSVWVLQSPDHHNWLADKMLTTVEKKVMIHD
# Macrophage colony-stimulating factor 1 receptor (Homo sapiens), sequence (P07333 whole entry): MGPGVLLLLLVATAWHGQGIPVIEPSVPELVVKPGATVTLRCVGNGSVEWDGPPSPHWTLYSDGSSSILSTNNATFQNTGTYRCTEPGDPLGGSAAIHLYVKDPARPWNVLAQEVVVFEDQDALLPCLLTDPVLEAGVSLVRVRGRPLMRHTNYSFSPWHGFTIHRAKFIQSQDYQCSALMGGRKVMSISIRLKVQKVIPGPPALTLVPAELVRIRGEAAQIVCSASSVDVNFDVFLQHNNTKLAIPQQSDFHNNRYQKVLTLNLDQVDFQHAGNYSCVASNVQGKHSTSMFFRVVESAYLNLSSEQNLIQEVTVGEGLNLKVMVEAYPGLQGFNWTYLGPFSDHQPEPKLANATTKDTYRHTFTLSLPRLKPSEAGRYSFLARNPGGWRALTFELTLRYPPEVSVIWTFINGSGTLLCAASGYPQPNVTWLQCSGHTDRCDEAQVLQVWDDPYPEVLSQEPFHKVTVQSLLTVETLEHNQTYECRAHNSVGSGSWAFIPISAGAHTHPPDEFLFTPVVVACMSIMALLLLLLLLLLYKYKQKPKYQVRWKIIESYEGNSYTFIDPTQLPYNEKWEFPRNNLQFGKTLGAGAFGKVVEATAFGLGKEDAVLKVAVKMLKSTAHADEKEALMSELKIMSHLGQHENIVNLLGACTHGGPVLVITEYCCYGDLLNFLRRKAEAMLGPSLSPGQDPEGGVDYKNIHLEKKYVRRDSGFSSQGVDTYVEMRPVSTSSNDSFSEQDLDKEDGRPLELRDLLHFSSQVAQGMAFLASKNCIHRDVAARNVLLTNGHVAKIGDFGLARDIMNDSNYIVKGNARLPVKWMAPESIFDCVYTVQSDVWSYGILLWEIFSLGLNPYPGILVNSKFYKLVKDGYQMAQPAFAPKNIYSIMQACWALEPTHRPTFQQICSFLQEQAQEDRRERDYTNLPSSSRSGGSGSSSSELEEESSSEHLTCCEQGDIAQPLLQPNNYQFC
# Serine/threonine-protein kinase pim-2 (Homo sapiens), sequence (Q9P1W9 whole entry, looked up): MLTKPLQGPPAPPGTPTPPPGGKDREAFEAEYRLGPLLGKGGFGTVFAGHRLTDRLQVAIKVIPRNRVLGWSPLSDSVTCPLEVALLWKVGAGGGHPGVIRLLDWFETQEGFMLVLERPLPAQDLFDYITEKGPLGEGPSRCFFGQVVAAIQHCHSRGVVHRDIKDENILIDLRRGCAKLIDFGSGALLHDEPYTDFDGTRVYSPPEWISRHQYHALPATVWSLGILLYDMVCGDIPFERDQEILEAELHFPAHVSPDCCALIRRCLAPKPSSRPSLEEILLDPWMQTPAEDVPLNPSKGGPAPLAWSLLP
# Receptor tyrosine-protein kinase erbB-4 (Homo sapiens), sequence (Q15303 whole entry): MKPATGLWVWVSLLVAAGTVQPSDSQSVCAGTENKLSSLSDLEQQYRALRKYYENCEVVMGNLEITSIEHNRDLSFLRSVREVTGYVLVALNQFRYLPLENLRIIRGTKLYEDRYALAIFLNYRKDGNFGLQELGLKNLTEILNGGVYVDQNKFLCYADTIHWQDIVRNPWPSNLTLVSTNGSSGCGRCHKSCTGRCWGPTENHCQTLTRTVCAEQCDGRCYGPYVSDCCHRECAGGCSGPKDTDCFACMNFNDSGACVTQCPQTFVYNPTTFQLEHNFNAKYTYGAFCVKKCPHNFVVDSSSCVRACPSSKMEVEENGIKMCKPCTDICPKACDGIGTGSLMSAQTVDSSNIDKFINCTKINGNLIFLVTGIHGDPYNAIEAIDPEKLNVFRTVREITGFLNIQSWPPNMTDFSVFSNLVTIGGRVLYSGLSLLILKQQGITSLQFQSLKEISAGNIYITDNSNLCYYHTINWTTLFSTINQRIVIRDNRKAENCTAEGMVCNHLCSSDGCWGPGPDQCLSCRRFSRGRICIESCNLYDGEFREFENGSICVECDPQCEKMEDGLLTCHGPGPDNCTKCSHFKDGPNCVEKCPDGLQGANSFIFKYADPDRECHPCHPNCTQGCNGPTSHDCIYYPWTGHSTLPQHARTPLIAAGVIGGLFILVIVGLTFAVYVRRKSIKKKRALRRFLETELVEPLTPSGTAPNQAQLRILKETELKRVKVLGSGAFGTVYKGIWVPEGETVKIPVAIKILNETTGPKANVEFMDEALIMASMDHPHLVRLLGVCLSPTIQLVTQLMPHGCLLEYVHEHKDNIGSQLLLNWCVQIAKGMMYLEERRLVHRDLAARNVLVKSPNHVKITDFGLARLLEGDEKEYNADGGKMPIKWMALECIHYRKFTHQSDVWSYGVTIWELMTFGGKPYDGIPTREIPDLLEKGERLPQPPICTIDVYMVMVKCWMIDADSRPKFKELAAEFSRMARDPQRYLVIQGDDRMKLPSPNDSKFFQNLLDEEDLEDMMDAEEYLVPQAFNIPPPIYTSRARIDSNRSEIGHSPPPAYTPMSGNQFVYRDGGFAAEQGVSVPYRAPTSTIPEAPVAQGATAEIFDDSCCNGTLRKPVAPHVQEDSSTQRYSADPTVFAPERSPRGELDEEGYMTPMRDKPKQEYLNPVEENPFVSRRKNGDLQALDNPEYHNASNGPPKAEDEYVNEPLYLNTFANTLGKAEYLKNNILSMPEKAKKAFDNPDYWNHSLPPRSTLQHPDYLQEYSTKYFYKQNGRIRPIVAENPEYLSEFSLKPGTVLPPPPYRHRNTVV
# Delta-type opioid receptor (Homo sapiens), sequence (P41143 whole entry): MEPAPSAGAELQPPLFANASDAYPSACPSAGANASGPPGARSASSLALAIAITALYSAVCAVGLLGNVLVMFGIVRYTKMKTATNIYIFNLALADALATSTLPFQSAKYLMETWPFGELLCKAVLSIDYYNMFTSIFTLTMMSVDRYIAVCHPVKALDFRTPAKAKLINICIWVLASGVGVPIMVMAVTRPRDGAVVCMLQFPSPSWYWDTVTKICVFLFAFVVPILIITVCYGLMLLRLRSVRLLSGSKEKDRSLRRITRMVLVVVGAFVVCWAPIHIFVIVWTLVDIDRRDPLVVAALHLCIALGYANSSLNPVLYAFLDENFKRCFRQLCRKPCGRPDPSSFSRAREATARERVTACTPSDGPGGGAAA
# D(3) dopamine receptor (Homo sapiens), sequence (P35462 whole entry): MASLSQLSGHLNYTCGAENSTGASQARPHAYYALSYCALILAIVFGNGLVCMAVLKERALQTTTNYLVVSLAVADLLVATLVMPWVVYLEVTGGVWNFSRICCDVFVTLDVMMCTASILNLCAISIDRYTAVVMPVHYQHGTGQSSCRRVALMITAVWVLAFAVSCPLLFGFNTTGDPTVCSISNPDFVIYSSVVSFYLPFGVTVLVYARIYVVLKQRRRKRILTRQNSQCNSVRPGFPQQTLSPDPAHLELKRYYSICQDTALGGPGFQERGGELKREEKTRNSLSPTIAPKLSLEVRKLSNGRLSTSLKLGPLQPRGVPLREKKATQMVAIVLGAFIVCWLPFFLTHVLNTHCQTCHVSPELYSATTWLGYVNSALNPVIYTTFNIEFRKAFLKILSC
# Protein kinase C zeta type (Homo sapiens), sequence (Q05513 whole entry): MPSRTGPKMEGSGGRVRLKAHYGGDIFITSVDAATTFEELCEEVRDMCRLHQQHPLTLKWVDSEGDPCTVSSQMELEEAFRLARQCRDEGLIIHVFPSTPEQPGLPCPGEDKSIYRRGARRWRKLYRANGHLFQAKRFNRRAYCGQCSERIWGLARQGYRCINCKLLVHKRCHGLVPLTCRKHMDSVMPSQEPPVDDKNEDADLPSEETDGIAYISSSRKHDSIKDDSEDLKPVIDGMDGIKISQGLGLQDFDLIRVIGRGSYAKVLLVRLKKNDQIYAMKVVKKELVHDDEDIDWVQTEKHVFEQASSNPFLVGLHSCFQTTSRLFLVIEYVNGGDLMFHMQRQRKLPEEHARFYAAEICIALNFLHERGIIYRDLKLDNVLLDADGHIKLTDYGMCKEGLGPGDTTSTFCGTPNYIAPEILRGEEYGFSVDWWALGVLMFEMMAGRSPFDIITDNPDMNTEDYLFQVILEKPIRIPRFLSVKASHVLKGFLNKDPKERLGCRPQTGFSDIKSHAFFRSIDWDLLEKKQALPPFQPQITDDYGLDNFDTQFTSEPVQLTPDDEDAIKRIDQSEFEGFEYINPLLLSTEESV
structure (smiles),measurement,setting,value
CC[C@@H](Nc1c(C#N)c(-c2ccc(-c3cccc(C)c3F)cc2)nc2cnccc12)C(=O)O [BAY-091],Ki,[1],1500 nM
same,Ki,[2],> 10000 nM
same,pKi,[2],< 5
same,inhibition,[3],8.65%
same,inhibition,[4],11.3%
same,inhibition,[5],4.02%
same,inhibition,[6],8.18%
same,inhibition,[7],0.08%
same,inhibition,[8],13%
same,inhibition,[9],11.7%
same,inhibition,[10],7.08%
same,inhibition,[11],-6.72%
same,inhibition,[12],3.85%
same,inhibition,[13],-1%
same,inhibition,[14],56.8%
same,inhibition,[15],-5.04%
same,inhibition,[16],4.32%
same,inhibition,[17],6.22%
same,inhibition,[18],-0.44%
same,inhibition,[19],3.39%
same,inhibition,[20],5.44%
same,inhibition,[21],18.1%
same,inhibition,[22],4.13%
same,inhibition,[23],11.1%
same,inhibition,[24],9.88%
same,inhibition,[25],6.42%
same,inhibition,[26],9.92%
same,inhibition,[27],-2.41%
same,inhibition,[28],23.6%
same,inhibition,[29],5.64%
same,inhibition,[30],-6.03%
same,inhibition,[31],-2.08%
same,inhibition,[32],9.54%
same,inhibition,[33],7.89%
same,inhibition,[34],14.7%
same,inhibition,[35],7.74%
same,inhibition,[36],5.32%
same,inhibition,[37],2.41%
same,inhibition,[38],61%
same,inhibition,[39],-2.99%
same,inhibition,[40],10.5%
same,inhibition,[41],15.8%
same,inhibition,[42],24.6%
same,inhibition,[43],25%
same,inhibition,[44],32%
same,inhibition,[45],12%
same,inhibition,[46],0%
same,inhibition,[47],42%
